Patent US5599793A, “Antithromobotic agents” (Eli Lilly and Company, priority 1995, dated 1997)

Tests used:
factor Xa = molecular target: T1, factor Xa (Homo sapiens, UniProt P00742); assay: Serine protease selectivity, chromogenic substrate (Kass), factor Xa; assay type: biochemical; details: substrate N-Benzoyl-Ile-Glu-Gly-Arg-p-nitroanilide
T1 construct: Human factors X, Xa, IXa, XIa, and XIIa are purchased; purchased Enzyme Research Laboratories, South Bend, Ind

Trypsin = molecular target: T2, Trypsin (Bos taurus, UniProt P00760); assay: Serine protease selectivity, chromogenic substrate (Kass), trypsin; assay type: biochemical, bovine; details: substrate N-Benzoyl-Phe-Val-Arg-p-nitroanilide
T2 construct: Bovine trypsin is purchased; purchased Worthington Biochemicals, Freehold, N.J
T2 sequence (P00760 24-246): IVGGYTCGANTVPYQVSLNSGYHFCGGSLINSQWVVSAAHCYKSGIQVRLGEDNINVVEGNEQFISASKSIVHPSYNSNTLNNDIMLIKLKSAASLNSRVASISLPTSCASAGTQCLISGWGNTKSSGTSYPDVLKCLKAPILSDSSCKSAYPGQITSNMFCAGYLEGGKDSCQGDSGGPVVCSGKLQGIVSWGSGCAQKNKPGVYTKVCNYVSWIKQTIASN

Plasmin = molecular target: T3, Plasmin (Homo sapiens, UniProt P00747); assay: Serine protease selectivity, chromogenic substrate (Kass), plasmin; assay type: biochemical; details: substrate H-D-Val-Leu-Lys-p-nitroanilide
T3 construct: Human plasmin is purchased; purchased Boehringer Mannheim, Indianapolis, Ind
T3 sequence (P00747 581-810 limits assumed): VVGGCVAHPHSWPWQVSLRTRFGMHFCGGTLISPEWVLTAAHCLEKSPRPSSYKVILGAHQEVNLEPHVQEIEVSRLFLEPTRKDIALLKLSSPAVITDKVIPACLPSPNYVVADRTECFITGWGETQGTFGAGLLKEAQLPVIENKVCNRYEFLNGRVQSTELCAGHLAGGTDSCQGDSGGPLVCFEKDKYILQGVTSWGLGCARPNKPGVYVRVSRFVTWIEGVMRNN
T3 sequence (P00747 97-580 partner limits assumed): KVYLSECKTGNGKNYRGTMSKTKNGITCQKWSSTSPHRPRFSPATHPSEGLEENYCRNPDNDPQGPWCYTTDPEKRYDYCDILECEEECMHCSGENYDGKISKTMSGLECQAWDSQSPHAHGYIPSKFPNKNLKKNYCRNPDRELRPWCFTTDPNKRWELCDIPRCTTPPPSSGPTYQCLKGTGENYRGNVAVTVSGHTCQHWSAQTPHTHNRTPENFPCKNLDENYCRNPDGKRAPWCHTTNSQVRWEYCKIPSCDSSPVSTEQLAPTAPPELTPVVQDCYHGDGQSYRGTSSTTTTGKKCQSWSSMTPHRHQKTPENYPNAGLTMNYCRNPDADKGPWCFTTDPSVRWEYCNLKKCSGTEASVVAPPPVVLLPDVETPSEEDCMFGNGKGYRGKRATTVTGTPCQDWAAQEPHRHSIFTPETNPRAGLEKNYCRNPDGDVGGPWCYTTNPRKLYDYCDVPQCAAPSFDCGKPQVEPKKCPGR

Human plasma = Human plasma anticoagulation, prothrombin time (PT); assay type: biochemical; details: concentration required to double the PT, linear extrapolation

T1 sequence (P00742 235-488 limits assumed): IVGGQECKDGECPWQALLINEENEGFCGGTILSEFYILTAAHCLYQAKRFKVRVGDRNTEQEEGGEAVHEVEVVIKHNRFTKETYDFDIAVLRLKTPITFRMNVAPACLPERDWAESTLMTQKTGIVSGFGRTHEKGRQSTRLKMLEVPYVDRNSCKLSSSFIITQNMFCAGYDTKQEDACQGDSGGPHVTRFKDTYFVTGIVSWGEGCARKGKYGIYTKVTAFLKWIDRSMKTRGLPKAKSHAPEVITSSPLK
T1 sequence (P00742 41-179 partner limits assumed): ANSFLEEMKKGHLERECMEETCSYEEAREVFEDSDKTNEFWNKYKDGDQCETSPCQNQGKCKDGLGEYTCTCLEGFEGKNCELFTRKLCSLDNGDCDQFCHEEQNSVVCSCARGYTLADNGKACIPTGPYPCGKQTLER

Row | SMILES | Enzyme Kass, Xa (factor Xa) [L/mol × 10^6] | Enzyme Kass, Trypsin (Trypsin) [L/mol × 10^6] | Enzyme Kass, Plasmin (Plasmin) [L/mol × 10^6] | 2x Clotting time, PT (Human plasma) | Enzyme Kass, Xa (factor Xa; HCl) [L/mol × 10^6] | Enzyme Kass, Trypsin (Trypsin; HCl) [L/mol × 10^6] | Enzyme Kass, Plasmin (Plasmin; HCl) [L/mol × 10^6] | 2x Clotting time, PT (Human plasma; HCl)
1 | Cl.Cl.Cl.N=C(N)NCCC[C@@H](C=O)NC(=O)[C@@H]1C[C@H](Oc2ccc(N)cc2)CN1C(=O)[C@H]1CCCCN1 (relative stereo) [Example 11, D-hPro-Pro(4-cis-(4-NH2-phenoxy))-ArgH.3 HCl] | 0.66 | 74 | 1.4 | 5,900 ng/mL |  |  |  | 
2 | CCS(=O)(=O)N[C@@H](C(=O)N1[C@H](C(=O)N[C@H](C=O)CCCNC(=N)N)C[C@@H]2CCCC[C@@H]21)c1ccccc1.Cl (relative stereo) [Example 22, EtSO2 -D-Phg-cis-Ohi-ArgH.HCl] | 11.8 | 312 | 27.6 | 1,208 ng/mL |  |  |  | 
3 | C[C@H]1C[C@@H](C(=O)N[C@H](C=O)CCCNC(=N)N)N(C(=O)[C@H]2CCCCN2)C1.Cl.Cl (relative stereo) [Example 1, D-homoprolyl-L-cis-4-methyl-prolyl-L-argininal dihydrochloride] | 1.4 | 390 | 0.86 | 1,700 ng/mL |  |  |  | 
4 | Cl.Cl.N=C(N)NCCCC(C=O)NC(=O)C1CC2CCCCC2N1C(=O)C1NCCC2CCCCC21 [Example 20, D-1-cis-Piq-cis-Ohi-ArgH.2 HCl] |  |  |  |  | 0.75 | 119 | 3.67 | 1,452 ng/mL
5 | Cl.Cl.Cl.N=C(N)NCCC[C@@H](C=O)NC(=O)[C@@H]1C[C@H](Oc2cccnc2)CN1C(=O)[C@H]1CCCCN1 (relative stereo) [Example 9, D-hPro-Pro(4-cis-(3-pyridyloxy))-ArgH.3 HCl] | 1.6 | 130 | 1.7 | 3,100 ng/mL |  |  |  | 
6 | Cl.Cl.N=C(N)NCCC[C@@H](C=O)NC(=O)[C@@H]1CC2CCCCC2N1C(=O)[C@H]1CCCCN1 (relative stereo) [Example 7, N-[(1-D-homoprolyl-cis-octahydro-1H-indol-2(S)-yl)carbonyl]-L-argininal dihydrochloride] | 1.6 | 150 | 1.8 | 1,500 ng/mL |  |  |  | 
7 | Cl.Cl.N=C(N)NCCC[C@@H](C=O)NC(=O)[C@@H]1C[C@H](Oc2ccccc2)CN1C(=O)C1NCCC2CCCCC21 (relative stereo) [Example 15, D-1-Piq-Pro(4-cis-phenoxy)-ArgH.2 HCl] | 2.6 | 140 | 5.1 | 1,600 ng/mL |  |  |  | 
8 | Cl.Cl.N=C(N)NCCC[C@H](C=O)NC(=O)[C@@H]1C[C@H](Oc2ccccc2)CN1C(=O)[C@H]1CCCCN1 (relative stereo) [Example 8, D-homoprolyl-L-cis-4-phenoxy-L-prolyl-D-argininal dihydrochloride] | 3.0 | 270 | 2.9 | 1,900 ng/mL |  |  |  | 
9 | CC[C@H]1C[C@@H](C(=O)N[C@H](C=O)CCCNC(=N)N)N(C(=O)[C@H]2CCCCN2)C1.Cl.Cl (relative stereo) [Example 2, D-homoprolyl-L-cis-4-ethyl-prolyl-L-argininal dihydrochloride] | 1.7 | 520 | 1.0 | 1,500 ng/mL |  |  |  | 
10 | Cl.Cl.N=C(N)NCCC[C@@H](C=O)NC(=O)[C@@H]1C[C@H](Cc2ccccc2)CN1C(=O)[C@H]1CCCCN1 (relative stereo) [Example 5, D-hPro-Pro(4-cis-benzyl)-ArgH.2 HCl] | 5.8 | 150 | 2.1 | 1,600 ng/mL |  |  |  | 
11 | CCC[C@H]1C[C@@H](C(=O)N[C@H](C=O)CCCNC(=N)N)N(C(=O)[C@H]2CCCCN2)C1.Cl.Cl (relative stereo) [Example 3, D-hPro-Pro(4-cis-n-propyl)-ArgH.2 HCl] | 1.7 | 260 | 0.66 | 2,900 ng/mL |  |  |  | 
